Results: patent US7238469B2, “Carbon monoxide improves outcomes in tissue and organ transplants and suppresses apoptosis” (priority 2001, dated 2007)
“Also recorded” adds a separate entry of the source.

Tests used:
[1] = tested on: 2F–2B ECs; format: cell-based, murine
Description: The murine 2F–2B endothelial cell line (ATCC) was transiently transfected as described elsewhere (Soares et al., Nature Med. 4:1073, 1998; Brouard et al, J. Exp. Med. 192:1015, 2000). All experiments were conducted 24–48 h after transfection. é-galactosidase-transfected cells were detected as described elsewhere (Soares et al., Nature Med. 4:1073, 1998; Brouard et al., J. Exp. Med. 192:1015, 2000). Percentage of viable cells was assessed by evaluating the number of é-galactosidase-expressing cells that retained normal morphology as described elsewhere (Soares et al., Nature Med. 4:1073, 1998; Brouard et al., J. Exp. Med. 192:1015, 2000). The number of random fields counted was determined to have a minimum of 200 viable transfected cells per control well. The percentage of viable cells was normalized for each DNA preparation to the number of transfected cells counted in the absence of the apoptosis-inducing agent (100% viability). All experiments were performed at least three times in duplicate. Actinomycin D (Act. D; Sigma) was dissolved in PBS and added to the culture medium (10 îg/ml) 24 h after transfection. SnPPIX (Porphyrin Products) was dissolved (10 îM) in 100 mM NaOH and conserved at −20° C. until used. SNPPIX was added to the culture medium (50 îM) 6 h after transfection. Human recombinant TNF-α (R&D Systems, Minneapolis, Minn.) was dissolved in PBS, 1% BSA, and added to the culture medium (10–100 ng/ml) 24 h after transfection.
Cells were exposed to compressed air or varying concentration of CO (250 and 10,000 ppm), as described elsewhere (Otterbein et al., Nature Med. 6:422, 2000; and Brouard et al., J. Exp. Med. 192:1015, 2000).
BAECs and 2F–2B ECs were transiently transfected. All experiments were carried out 24–48 h after transfection. The percentage of viable cells was assessed by evaluating the number of β-galactosidase-expressing cells that retained normal morphology. The number of random fields counted was determined to have a minimum of 200 viable transfected cells per control well. The percentage of viable cells was normalized for each DNA preparation to the number of transfected cells counted in the absence of the apoptosis-inducing agent (100% viability). All experiments were performed at least three times in duplicate.
Actinomycin D (Act.D; Sigma-Aldrich) was dissolved in PBS and added to the culture medium 24 h after transfection. The Act.D concentration used corresponded to the optimal concentration necessary to sensitize ECs to TNF-α mediated apoptosis, e.g., 10 μg/ml for 2F–2B ECs and 0.1 μg/ml for BAECs. When indicated, EC apoptosis was induced by etoposide (200 μM, 8 h; Calbiochem-Novabiochem) or by serum deprivation (0.1% FCS for 24 h). The iron chelator deferoxamine mesylate (DFO; Sigma-Aldrich) was dissolved in water and added to culture medium (1–100 μM) 1 h before the induction of apoptosis. Hemoglobin (Hb; Sigma-Aldrich) was dissolved (1 mM) in PBS, 10 mM Na2S2O4, dialyzed against PBS (2 h, 4° C., 1:800 dilution), and added to the culture medium (1–100 μM) 6 h after transfection. The guanylcyclase inhibitor 1H(1,2,4)oxadiazolo(4,3)quinoxalin-1 (ODQ; Calbiochem-Novabiochem) was dissolved in DMSO (Sigma-Aldrich) and added to the culture medium (10–100 μM) 6 h after transfection. Iron protoporphyrin ([FePP]/heme), cobalt protoporphyrin (CoPPIX), and tin protoporphyrin (SnPPIX; all from Porphyrin Products, Inc.) were dissolved (10 mM) in 100 mM NaOH and held at −20° C. until use. Metalloporphyrins were added to the culture medium (50 μM) 6 h after transfection. The cGMP analogue 8-bromo-cGMP sodium salt (8-Br-cGMP; Sigma-Aldrich) was dissolved in water and added to the culture medium (10–100 µM) 30 min before the induction of apoptosis. Human recombinant TNF- (R&D Systems) was dissolved in PBS and 1% BSA, and added to the culture medium (10–100 ng/ml) 24 h after transfection.
Cells were exposed to compressed air from a compressed air tank or varying concentrations of CO (250 and 10,000 ppm).

[2] = tested on: mouse hearts transplanted into rats; assay: Mouse-to-rat heterotopic cardiac transplant, graft survival; format: in vivo, BALB/c mouse hearts, Lewis rats; details: for graft outcome: mouse hearts into rats, FePPIX with CVF plus CsA, CO 400 ppm in SnPPIX-treated rats
Text: BALB/c mouse hearts were used as donor organs for transplantation into inbred adult male Lewis rats (Harlan Sprague-Dawley, Indianapolis, Ind.). Animals were housed in accordance with guidelines from the American Association for Laboratory Animal Care, and research protocols were approved by the Institutional Animal Care and Use Committees of the Beth Israel Deaconess Medical Center.
Animals were anesthetized by a combination of methoxyflurane (Pitman-Moore, Mundelain, Ill.) inhalation and pentobarbital (Abbott, North Chicago, Ill.) at a dose of 30–50 mg/kg i.p. during all procedures. Heterotopic cardiac transplants were performed as described previously (Berk et al., Physiol Rev. 8:999–1030, 2001; Petkova et al., J Biol. Chem. 276:7932–7936, 2001). Graft survival was assessed daily by palpation. Rejection was diagnosed by cessation of ventricular contractions and confirmed by histologic examination.
Cobra venom factor (CVF; which blocks complement activation) (Quidel, San Diego, Calif.) was administered i.p. on day −1 (60 U/kg) and on day 0 (20 U/kg) with respect to the day of transplantation (day 0). Cyclosporin A (CsA; Novartis, Basel, Switzerland), which blocks T cell activation, was administered i.m. (15 mg/kg) starting at day 0 and daily thereafter until the end of each experiment. Tin protoporphyrin (SnPPIX), cobalt protoporphyrin (CoP-PIX), and iron protoporphyrin (FePPIX; Porphyrin Products, Logan, Utah) were diluted in 100 mM NaOH to a stock solution of 50 mM and kept at −70° C. until used. Light exposure was limited as much as possible. Both SnPPIX and FePPIX were administered i.p. (30 μM/kg) in PBS. FePPIX and SnPPIX were administered to the donor at days −2 and −1 (30 μM/kg) and to the recipient at the time of transplantation (day 0) and daily thereafter (30 μM/kg).
Briefly, CO at a concentration of 1% (10,000 parts per million; ppm) in compressed air was mixed with balanced air (21% oxygen) in a stainless steel mixing cylinder before entering the exposure chamber. CO concentrations were controlled by varying the flow rates of CO in a mixing cylinder before delivery to the chamber. Because the flow rate is primarily determined by the O2 flow, only the CO flow was changed to deliver the final concentration to the exposure chamber. A CO analyzer (Interscan Corporation, Chatsworth, Calif.) was used to measure CO levels continuously in the chamber. Graft donors were placed in the CO exposure chamber 2 days before transplantation. Graft recipients were placed in the exposure chamber immediately following transplantation and were kept in the exposure chamber for 14 (n=3) or 16 (n=3) days. CO concentration was maintained between 250 and 400 ppm at all times. Animals were removed daily from the chamber to assess graft survival and to administer CsA, SnPPIX, or FePPIX, as described above.

Nc1nc2c(nc(Br)n2[C@@H]2O[C@@H]3COP(=O)(O)O[C@H]3[C@H]2O)c(=O)[nH]1 [8-Br-cGMP, 8-bromoguanosine-3′-5′-cyclic-monophosphate]
effect on EC apoptosis ([1]; 8-Br-cGMP): failed to suppress EC apoptosis

O=c1onc2cnc3ccccc3n12 [ODQ, 1H[1,2,4]oxadiazolo[4,3-α]quinoxalin-1]
effect on the antiapoptotic effects of HO-1 ([1]; ODQ 10–100 μM): did not suppress the antiapoptotic effects of HO-1

[C-]#[O+] [CO, carbon monoxide]
dose of CO used as fraction of the lethal dose ([2]; 400–500 ppm): approximately one-twentieth | graft outcome [2]: survived long term | untoward reactions ([2]; rats and mice exposed to CO): did not exhibit untoward reactions | time grafts continued to function ([2]; rats treated with SnPPIX, CO 400 ppm discontinued 14 or 16 days after transplantation): > 50 days | effect on EC apoptosis under inhibition of HO activity by SnPPIX ([1]; CO 250 ppm): did not suppress EC apoptosis significantly | effect on TNF-α mediated apoptosis of control ECs (pcDNA3) ([1]; exogenous CO 10,000 ppm): TNF-α mediated apoptosis was suppressed

C=Cc1c2[n-]c(c1C)/C=c1\[n-]/c(c(C)c1C=C)=C\c1[n-]c(c(CCC(=O)O)c1C)C=c1[n-]/c(c(C)c1CCC(=O)O)=C\2.[Sn+4] [SnPPIX, tin protoporphyrin IX]
time to graft rejection after transplantation ([2]; SnPPIX to donor and recipient, despite CVF plus CsA): 3 to 7 days | effect of protoporphyrin on the antiapoptotic effect of HO-1 ([1]; HO-1 transfected ECs, protoporphyrin 50 μM): blocked the antiapoptotic effect of HO-1; also recorded: HO-1 was no longer able to prevent EC apoptosis

C=CC1=C(C)c2cc3[n-]c(cc4[n-]c(cc5nc(cc1n2)C(C)=C5C=C)c(C)c4CCC(=O)O)c(CCC(=O)O)c3C.[Fe+2] [FePPIX, iron protoporphyrin]
graft outcome [2]: did not lead to graft rejection | concentrations at which heme becomes cytotoxic ([1]; 2F–2B ECs): higher than 10 μM | heme concentrations at which the protective effect from TNF-α plus Act.D-mediated apoptosis was observed ([1]; 2F–2B ECs): 5 to 7 µM | effect on EC apoptosis when CO was scavenged by Hb ([1]; FePP 6.25 μM, Hb 50 μM): no longer able to suppress EC apoptosis
